Test results taken from patent US9645138B2, “Method to evaluate the tissue targeting of a molecule of interest” (IMABIOTECH, priority 2013, dated 2017).
Where two headings read alike, the source gives them in different places.

Tests used:
[1] = MALDI mass spectrometry imaging of mouse kidney sections after oral co-administration (Example 1)
Protocol: (§1) The target tissue, hereinafter “tissue 1”, comprises the medulla and renal calices.
(§2) The non-target adjacent tissue, hereinafter “tissue 2”, is also considered and comprises the renal cortex region.
(§3) Wild-type mice of Swiss strain weighing 25-40 g from Charles River Laboratories were used. […] Mice were sacrificed by CO2 asphyxiation. Kidneys were then removed and plunged into 100% isopentane solution cooled by liquid nitrogen for rapid freezing. Finally, kidneys were stored at −80° C.
(§4) Kidneys were sectioned into 10 μm thick layers (sagittal sections) using a Microm HM560 (Thermo Scientific, France) cooled at −21° C. The sections were then deposited on conductive ITO (indium tin oxide) slides (Delta Technology, USA). Finally, the sections were kept in the cryostat chamber 30 min for cryodrying and then placed in a desiccator for 30 minutes.
(§5) A CHCA matrix was used for the analysis of all kidney tissue sections. This matrix was prepared at a concentration of 10 mg/ml in acetonitrile/water+0.1% TFA (6:1, v/v). The matrix solution was deposited using the SunCollect spraying system (SunChrom, Germany) following optimized protocol.
(§6) The images were obtained using an AutoFlex Speed MALDI-TOF mass spectrometer (Bruker Daltonics, Bremen, Germany) equipped with a Smartbeam II laser. The data was generated in positive reflectron mode. A total of 500 spectra were obtained for each spot with a 1000 Hz laser frequency and a 200×200 μm^2 image spatial resolution on a mass range of 100 to 1000 Da. The FlexImaging version 4.0 software was used to reconstruct the images and Quantinetix 1.6 software (ImaBiotech, Loos, France) permitted the extraction of spectral intensities of ions corresponding to each studied molecule.
(§7) The imaging data treatment software Quantinetix is used to extract relative intensities of each ion of interest and control compound for each position (or voxel) within each drawn region.
(§8) The next step is to normalize the whole dataset in order to compare them. The highest intensity related to each ion is used to normalize the intensities per position. One calculates mean normalized intensities for each ion and tissue type.
(§9) By definition, one considers that positive control compound factor F1 is equal to 100% whereas negative control compound factor F1 is equal to 0%.
(§10) F2 factor calculation is performed using normalized intensity values from the previous F1 factor evaluation. Position per position, one assesses the standard deviations of intensity values of the molecule of interest and the negative control with positive control one at the level of the target tissue (T1).
(§11) By definition, the positive control compound's factor F2 is considered equal to 100% whereas the negative control compound's factor F2 is equal to 0%.

[2] = Swiss, mouse, in vivo
Protocol: as §1, §2, §3, §4, §5, §6, §7, §8, §9, §10, §11

[3] = tested on: receptor in the brain (GABA); assay: Receptor occupancy / adsorption by MALDI imaging of rat brain sections, Diazepam dosed and Lorazepam washing (Example 2)
Source text: FIG. 7 explains the methodology of adsorption of a molecule on tissue using the example of the receptor occupancy process. In this way, it is possible to measure the occupancy efficiency of the receptor by the drug (agonist) administered to the animal compared with an antagonist molecule. In this example, all the steps of the methodology are described: the dosed tissue analysis alone, the washing step with the antagonist solution of the control tissue and the combined dosed/washing analysis of the administrated sample. No negative marker is required for this kind of experiment.
Of course, in an almost identical manner an imaging device other that MALDI can be used, such as the following: SIMS, DESI, DIOS, ICP, MALDI microscope, SNOM, SMALDI, LA-ICP, ESI (liquid extraction on tissue), MILDI, JEDI, ELDI, etc.
Wild-type rats weighing 35-40 g were used. […] Animals (dosed and control rats) were sacrificed by CO2 asphyxiation. […] Finally, brains were stored at −80° C.
Brains (control and dosed tissues) were sectioned into 10 μm thick layers (coronal section) using a Microm HM560 (Thermo Scientific, France) cooled at −20° C.
The antagonist solution was prepared from a stock solution of Lorazepam at 1 mg/ml in methanol (100%). The final concentration of the washing solution was fixed at 100 pmol/μL in methanol/water+0.1% TFA (7:3). The concentration of the antagonist is a crucial factor for receptor occupancy that improves the binding capacity of the molecule. 20 μL of the solution was spotted on the tissue section (one dosed and one control sample) and then incubated for 1 hour at 37° C. in a box inside an INCU-Line incubator (VWR, France). A dosed brain section without washing was also put in the incubator.
After incubation, tissues were washed using 2 steps to remove unbound molecules from the tissue, firstly with a solution of methanol/water+0.1% TFA (7:3) corresponding to the antagonist washing solution. Secondly, the tissue is washed using only water solution (10 mL) and then placed into a desiccator for 15 min.
A DHB matrix was used for the analysis of all brain tissue sections with or without washing with the Lorazepam solution. This matrix was prepared at a concentration of 40 mg/ml in methanol/water+0.1% TFA (1:1, v/v).
The data was generated in positive reflectron mode.
The F2 factor allows comparison of the fine localization of the agonist and the antagonist in the white matter region and gives information about their similarity or dissimilarity.

[4] = mouse kidney target tissue T1, positive control 100% and negative control 0% by definition
[5] = rat brain targeted area T1, positive marker Lorazepam = 100%

CC[C@@H]([C@H](C)O)n1ncn(-c2ccc(N3CCN(c4ccc(OC[C@@H]5CO[C@@](Cn6cncn6)(c6ccc(F)cc6F)C5)cc4)CC3)cc2)c1=O [Posaconazole]
% Tg (global targeting coefficient) ([1]; mouse kidney target tissue T1): 100%
F1 (%) [1, 4]: 100%
F2 (%) [1, 4]: 100%
Mean normalized intensity per tissue T2 ([1]; mouse kidney, non target tissue T2 (renal cortex), oral 8 mg/kg, MALDI imaging): 0.055
Mean normalized intensity per tissue T1 ([1]; mouse kidney, target tissue T1 (medulla), oral 8 mg/kg, MALDI imaging): 0.281

CN1C(=O)CC(C)(c2ccccc2)C1=O (centres unmarked) [Methsuximide]
% Tg (global targeting coefficient) [2]: 0%
F1 (%) [2]: 0%
F2 (%) [2]: 0%
Mean normalized intensity per tissue T1 ([2]; po, 8 mg/kg): 0.062
Mean normalized intensity per tissue T2 ([2]; po, 8 mg/kg): 0.241

O=C1Nc2ccc(Cl)cc2C(c2ccccc2Cl)=NC1O (centres unmarked) [Lorazepam]
localization on the brain section (MSI) ([3]; control tissue section washed with the Lorazepam solution (100 pmol/μL, 1 hour at 37° C.)): especially in the white matter
F1 (%) [3, 5]: 100%
F2 (%) [3, 5]: 100%
Normalized mean intensity/Tissue T1 ([3]; rat brain, targeted area T1 (white matter, receptor binding site), Diazepam 15 mg/kg i.v., Lorazepam washing 100 pmol/μL): 0.821
Normalized mean intensity/Tissue T2 ([3]; rat brain, untargeted area T2 (rest of the brain), Diazepam 15 mg/kg i.v., Lorazepam washing 100 pmol/μL): 0.21
% Tar (targeting coefficient) ([3]; target area (Receptor) T1, rat brain): 100%

Cc1cc2c(s1)Nc1ccccc1N=C2N1CCN(C)CC1 [Olanzapine]
% Tg (global targeting coefficient) ([1]; mouse kidney target tissue T1): 40%
F1 (%) [1, 4]: 52.2%
distribution in the kidney section (MS image, FIG. 6) ([1]; mouse kidney, oral 8 mg/kg): mainly localized in the right half section of the medulla
affinity / targeting behavior for the medulla region ([1]; mouse kidney, summary of Example 1): mean affinity
